Results taken from the NIST ThermoML archive (doi:10.1021/je7005067).

Conditions: Liquid

CCCCC(CC)COC(=O)c1ccccc1C(=O)OCC(CC)CCCC (configuration not stated) [bis(2-ethylhexyl) 1,2-benzenedicarboxylate]
Conditions | vapor or sublimation pressure [kPa]
423.15 K | 0.008
433.15 K | 0.017
443.15 K | 0.0326
448.15 K | 0.0419
453.15 K | 0.0655
463.15 K | 0.1154
473.15 K | 0.1874
